Results published in ChEMBL document CHEMBL1150477, “Development of angiotensin II antagonists with equipotent affinity for human AT1 and AT2 receptor subtypes” (Bioorg Med Chem Lett, 1994).
Where a chain is given by its changes, count along the chain named.

Assays:
[1] = target: T1, Type-1 angiotensin II receptor (Homo sapiens, UniProt P30556); experiment: […] inhibitory concentration against Angiotensin II receptor, type 1 of human adrenal membrane
T1 sequence (P30556 whole entry): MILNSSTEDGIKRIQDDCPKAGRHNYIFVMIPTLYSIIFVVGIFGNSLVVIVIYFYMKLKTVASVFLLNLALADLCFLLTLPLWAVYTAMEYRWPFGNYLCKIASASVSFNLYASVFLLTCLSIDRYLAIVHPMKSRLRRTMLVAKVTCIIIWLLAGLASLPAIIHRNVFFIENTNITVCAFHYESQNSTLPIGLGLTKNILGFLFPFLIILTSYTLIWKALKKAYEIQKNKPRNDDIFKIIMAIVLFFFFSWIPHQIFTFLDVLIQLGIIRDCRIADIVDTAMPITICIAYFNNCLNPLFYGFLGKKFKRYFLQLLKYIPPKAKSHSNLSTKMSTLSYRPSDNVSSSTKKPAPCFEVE

[2] = target: Angiotensin II receptor (Homo sapiens) (UniProt P30556+P50052); experiment: Ratio of inhibitory concentration against AT2 receptor and AT1 receptor of human adrenal membrane
[3] = target: T2, Angiotensin II receptor (AT-1) type-1 (Rattus norvegicus, UniProt P29089+P25095); experiment: […] inhibitory concentration against Angiotensin II receptor, type 1 of rat adrenal membrane
T2 sequence (P29089 whole entry): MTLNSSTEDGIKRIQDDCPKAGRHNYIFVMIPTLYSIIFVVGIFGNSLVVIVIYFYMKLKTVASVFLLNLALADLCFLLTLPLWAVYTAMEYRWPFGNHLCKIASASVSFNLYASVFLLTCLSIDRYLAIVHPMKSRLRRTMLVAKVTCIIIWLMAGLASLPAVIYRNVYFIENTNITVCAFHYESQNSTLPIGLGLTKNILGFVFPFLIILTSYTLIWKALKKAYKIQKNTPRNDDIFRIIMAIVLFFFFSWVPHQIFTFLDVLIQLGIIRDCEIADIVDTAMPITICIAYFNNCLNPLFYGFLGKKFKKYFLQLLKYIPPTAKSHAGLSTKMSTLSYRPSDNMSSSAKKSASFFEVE
T2 sequence (P25095 whole entry): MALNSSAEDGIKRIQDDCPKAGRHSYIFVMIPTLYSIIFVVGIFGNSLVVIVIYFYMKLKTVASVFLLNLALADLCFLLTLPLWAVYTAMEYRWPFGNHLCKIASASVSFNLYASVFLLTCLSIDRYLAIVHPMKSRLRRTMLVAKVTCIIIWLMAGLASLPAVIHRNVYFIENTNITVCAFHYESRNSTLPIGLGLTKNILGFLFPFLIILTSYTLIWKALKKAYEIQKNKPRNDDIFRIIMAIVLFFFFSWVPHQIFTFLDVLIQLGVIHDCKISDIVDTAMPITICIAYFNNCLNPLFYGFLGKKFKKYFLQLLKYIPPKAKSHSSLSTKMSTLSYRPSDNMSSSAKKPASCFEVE

Oryctolagus cuniculus = species: Oryctolagus cuniculus; experiment: Ratio of inhibitory concentration against AT2 receptor of rat midbrain to AT1 receptor of rabbit aorta
[4] = target: T3, Type-2 angiotensin II receptor (Rattus norvegicus, UniProt P35351); experiment: […] inhibitory concentration against AT2 receptor of rat adrenal membrane
T3 sequence (P35351 whole entry): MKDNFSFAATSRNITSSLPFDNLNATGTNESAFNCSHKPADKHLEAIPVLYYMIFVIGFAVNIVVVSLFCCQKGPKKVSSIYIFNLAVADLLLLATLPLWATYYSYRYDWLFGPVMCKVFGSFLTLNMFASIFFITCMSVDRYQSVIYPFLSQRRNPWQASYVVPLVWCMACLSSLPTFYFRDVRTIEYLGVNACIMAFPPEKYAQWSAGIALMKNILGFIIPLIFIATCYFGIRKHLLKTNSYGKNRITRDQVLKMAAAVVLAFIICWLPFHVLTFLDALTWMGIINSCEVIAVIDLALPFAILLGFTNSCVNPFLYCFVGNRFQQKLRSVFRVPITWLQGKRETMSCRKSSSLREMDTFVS

[5] = target: T4, Type-1 angiotensin II receptor (Oryctolagus cuniculus, UniProt P34976); experiment: […] inhibitory concentration against Angiotensin II receptor, type 1 of rabbit aorta membrane
T4 sequence (P34976 whole entry): T1 sequence (P30556 whole entry) with I2M, V49A, I254V, I270V, R272H, R311K, T349S, A353V

[6] = target: T5, Type-2 angiotensin II receptor (Homo sapiens, UniProt P50052); experiment: […] inhibitory concentration against AT2 receptor of human adrenal membrane
T5 sequence (P50052 whole entry): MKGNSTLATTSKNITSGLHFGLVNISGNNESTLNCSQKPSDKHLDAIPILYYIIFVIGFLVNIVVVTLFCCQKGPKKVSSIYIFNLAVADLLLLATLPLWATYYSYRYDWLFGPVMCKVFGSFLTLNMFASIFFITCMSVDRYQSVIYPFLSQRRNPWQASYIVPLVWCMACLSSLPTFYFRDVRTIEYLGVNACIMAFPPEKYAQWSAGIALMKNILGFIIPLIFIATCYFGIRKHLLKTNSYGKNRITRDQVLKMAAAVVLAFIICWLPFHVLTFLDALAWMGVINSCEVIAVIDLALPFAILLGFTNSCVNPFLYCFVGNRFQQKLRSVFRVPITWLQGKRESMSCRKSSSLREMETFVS

[7] = target: Angiotensin II receptor (Rattus norvegicus) (UniProt P29089+P25095+P35351); experiment: Ratio of inhibitory concentration against AT2 receptor and AT1 receptor of rat adrenal membrane
[8] = target: T3, Type-2 angiotensin II receptor; experiment: […] inhibitory concentration against Angiotensin II, type 2 of rat midbrain membrane

Row | Compound | IC50 [1] [nM] | Ratio [2] | IC50 [3] [nM] | Ratio (Oryctolagus cuniculus) | IC50 [4] [nM] | IC50 [5] [nM] | IC50 [6] [nM] | Ratio [7] | IC50 [8] [nM]
1 | Cc1nc2ccc(NC(=O)N(C)C(C)C)cc2c(=O)n1Cc1ccc(-c2ccccc2S(=O)(=O)NC(=O)OCCC(C)C)cc1F | 26.5 | 0.47 | 0.58 | 0.45 | 0.72 | 2.3 | 12.5 | 1.24 | 1.05
2 | CCNC(=O)Nc1ccc2nc(CC)n(Cc3ccc(-c4ccccc4S(=O)(=O)NC(=O)OCCC4CC4)cc3F)c(=O)c2c1 | 12 | 0.77 | 0.64 | 0.97 | 0.8 | 0.73 | 9.8 | 0.92 | 0.56
3 | CCCCOC(=O)NS(=O)(=O)c1ccccc1-c1ccc(Cn2c(CC)nc3ccc(NC(=O)N4CCOCC4)cc3c2=O)c(F)c1 | 33 | 1 | 1.3 | 0.38 | 2.5 | 3.8 | 32 | 2.2 | 1.3
4 | CCc1nc2ccc(NC(=O)N(C)C(C)C)cc2c(=O)n1Cc1ccc(-c2ccccc2S(=O)(=O)NC(=O)OCCC(C)C)cc1F | 10 | 0.9 | 0.3 | 0.33 | 0.3 | 0.62 | 9.2 | 1.1 | 0.2
5 | CCCCCN(C(=O)c1ccccc1)c1ccc2nc(CCC)n(Cc3ccc(-c4ccccc4-c4nn[nH]n4)cc3)c(=O)c2c1 | – | – | – | – | – | 1.5 | 7 | – | –
6 | CCCCc1nc2ccc(NC(=O)N(C)C(C)C)cc2c(=O)n1Cc1ccc(-c2ccccc2S(=O)(=O)NC(=O)OCCC2CC2)cc1F | 1.2 | 7.6 | 0.23 | 2.5 | 0.36 | 0.13 | 7.8 | 1.5 | 0.29
7 | CCc1nc2ccc(NC(=O)NC(C)C)cc2c(=O)n1Cc1ccc(-c2ccccc2S(=O)(=O)NC(=O)OCCC2CC2)cc1F | 7.2 | 0.9 | 0.64 | 0.61 | 0.8 | 0.92 | 6.5 | 0.92 | 0.56
8 | CCCCOC(=O)NS(=O)(=O)c1ccccc1-c1ccc(Cn2c(CCCC)nc3ccc(NC(=O)N(C)C(C)C)cc3c2=O)c(F)c1 | 0.89 | 8.7 | 0.25 | 2.7 | 0.77 | 0.19 | 7.7 | 3.2 | 0.44
9 | CCc1nc2ccc(NC(=O)N(C)C(C)C)cc2c(=O)n1Cc1ccc(-c2ccccc2S(=O)(=O)NC(=O)OCC=C(C)C)cc1F | 14.7 | 0.62 | 0.39 | 0.97 | 1.04 | 0.77 | 9.3 | 2.7 | 0.75

The remaining molecules from weak to strong by IC50 [5], led by results:

Row | IC50 [1] [nM] | Ratio [2] | IC50 [3] [nM] | Ratio (Oryctolagus cuniculus) | IC50 [4] [nM] | IC50 [5] [nM] | IC50 [6] [nM] | Ratio [7] | IC50 [8] [nM] | Compound
10 | 59 | 1.1 | 3.9 | 0.46 | 4.5 | 4 | 65 | 1.4 | 1.6 | CCNC(=O)Nc1ccc2nc(CC)n(Cc3ccc(-c4ccccc4S(=O)(=O)NC(=O)c4ccccc4F)cc3F)c(=O)c2c1
11 | 12 | 0.96 | 2.3 | 3.3 | 2.4 | 2.3 | 12 | 1.2 | 6.6 | Cc1nc2ccc(NC(=O)N(C)C)cc2c(=O)n1Cc1ccc(-c2ccccc2S(=O)(=O)NC(=O)OCCC2CC2)cc1F
12 | 85 | 0.47 | 1.3 | 0.79 | 0.63 | 2.3 | 37 | 2.5 | 1.8 | CCc1nc2ccc(NC(=O)c3ccccn3)cc2c(=O)n1Cc1ccc(-c2ccccc2S(=O)(=O)NC(=O)OCCC(C)C)cc1F
13 | 65 | 0.18 | 2 | 0.1 | 0.61 | 2.2 | 11 | 0.3 | 0.21 | CCc1nc2ccc(NC(=O)N(C)C(C)C)cc2c(=O)n1Cc1ccc(-c2ccccc2S(=O)(=O)NC(=O)COCC(C)C)cc1F
14 | 18 | – | 0.66 | 0.16 | 0.95 | 2 | 65 | 1.5 | 0.31 | CCc1nc2ccc(NC(=O)N3CCOCC3)cc2c(=O)n1Cc1ccc(-c2ccccc2S(=O)(=O)NC(=O)OCCC(C)C)cc1F
15 | 15 | 0.93 | 0.5 | 0.59 | 0.63 | 1.2 | 11 | 1.2 | 0.7 | Cc1nc2ccc(NC(=O)NC(C)C)cc2c(=O)n1Cc1ccc(-c2ccccc2S(=O)(=O)NC(=O)OCCC(C)C)cc1F
16 | 5.8 | 1.6 | 0.14 | 1.6 | 0.93 | 0.54 | 8.9 | 2.5 | 0.25 | CCc1ccc(C(=O)NS(=O)(=O)c2ccccc2-c2ccc(Cn3c(CC)nc4ccc(NC(=O)N(C)C(C)C)cc4c3=O)c(F)c2)cc1
17 | – | – | – | – | – | 0.24 | 60 | – | 2.4 | CCCCOC(=O)NS(=O)(=O)c1ccccc1-c1ccc(Cn2c(CCCC)nc3ccc(NC(=O)N(C)C(C)C)cc3c2=O)cc1
18 | 0.71 | 4.7 | 0.13 | 2.3 | 0.5 | 0.24 | 3.3 | 4.3 | 0.48 | CCCc1nc2ccc(NC(=O)N3CCOCC3)cc2c(=O)n1Cc1ccc(-c2ccccc2S(=O)(=O)NC(=O)OCCC(C)C)cc1F
19 | 1.6 | 2 | 0.14 | 1.3 | 0.34 | 0.19 | 3.1 | 2.5 | 0.25 | CCc1ccc(C(=O)NS(=O)(=O)c2ccccc2-c2ccc(Cn3c(CC)nc4ccc(NC(=O)NC(C)C)cc4c3=O)c(F)c2)c(F)c1
